Results taken from paper PMC7252619 (PLoS ONE, 2020).
Where two headings read alike, the source gives them in different places.

What was measured:
DAPK1 = biological target: T1, DAPK1 (Homo sapiens, UniProt P53355); assay: Kinase activity test (ReactionBiology), % enzyme activity relative to DMSO; format: biochemical; settings: DAPK1
T1 construct: purchased ReactionBiology

[1] = test system: human PBMCs (responder cells) with RPMI1788 stimulator cells; assay: Mixed Lymphocyte Reaction (MLR, T cell assay), 3H-thymidine incorporation; format: cell-based; settings: Homo sapiens, RPMI-1788; mean of 4 independent measures; read-out: T-cell efficacy, MLR IC 50 (µM) Mean
Description: In order to test the efficacy and selectivity of the hit compounds on B-cells, 4 assays were performed: B-cell assay, Mixed Lymphocyte Reaction (MLR), WST-1 assay on RPMI1788 cells (B-cell line) and cytotoxicity WST-1 assay on Jurkat cells (T-cell line). Compounds were prepared as 10 mM stock solutions in dimethylsulfoxide (DMSO)and were tested at 50-10-1-0.1-0.01 and 0.001 μM in the 4 assays.
Blood samples of healthy volunteers were collected at the Red Cross of Mechelen, Belgium. Each donor consents to the use of their blood for research purposes. […] The human B cell line RPMI1788 (American Type Culture Collection, USA) and the human T cell line Jurkat (European Collection of Cell Cultures, ECACC, England) were maintained in RPMI1640 culture medium (BioWhittaker®, Lonza, Verviers, Belgium) containing 10% foetal calf serum (FCS, HyClone® Thermo Scientific, United Kingdom) and 5 μg/mL gentamicin sulphate (BioWhittaker®, Lonza, Verviers, Belgium) at 37°C and 5% CO2.
MLR assay (T cell assay): Freshly isolated human PBMCs (responder cells) were resuspended in RPMI1640 medium containing 10% FCS and 5nμg/mL gentamicin sulphate. RPMI1788 cells (stimulator cells) were inactivated by treatment with mitomycin C (Kyowa®, Takeda Belgium, Brussels, Belgium) for 20 min at 37°C, washed and finally suspended in culture medium. An amount of 100 μL of each cell suspension was mixed with 20 μL of diluted compound. The mixed cells were cultured at 37°C for 6 days in 5% CO2. DNA synthesis was assayed by the addition of 10 μCi (methyl-3H) thymidine (Perkin Elmer, Zaventem, Belgium) per well during the last 18 h in culture. Thereafter, the cells were harvested on glass filter paper and the counts per minute determined in a liquid scintillation counter (TopCount, Perkin Elmer, Zaventem, Belgium).

MST-4 = biological target: T2, MST-4 (Homo sapiens, UniProt Q9P289); assay: Kinase activity test (ReactionBiology), % enzyme activity relative to DMSO; format: biochemical; settings: MST4;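 note: marketed FDA-approved drugs screened at 10 µM and 1 µM against a ten-kinase panel, remaining activity given as percent of DMSO controls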
T2 construct: purchased ReactionBiology
T2 sequence (Q9P289 whole entry): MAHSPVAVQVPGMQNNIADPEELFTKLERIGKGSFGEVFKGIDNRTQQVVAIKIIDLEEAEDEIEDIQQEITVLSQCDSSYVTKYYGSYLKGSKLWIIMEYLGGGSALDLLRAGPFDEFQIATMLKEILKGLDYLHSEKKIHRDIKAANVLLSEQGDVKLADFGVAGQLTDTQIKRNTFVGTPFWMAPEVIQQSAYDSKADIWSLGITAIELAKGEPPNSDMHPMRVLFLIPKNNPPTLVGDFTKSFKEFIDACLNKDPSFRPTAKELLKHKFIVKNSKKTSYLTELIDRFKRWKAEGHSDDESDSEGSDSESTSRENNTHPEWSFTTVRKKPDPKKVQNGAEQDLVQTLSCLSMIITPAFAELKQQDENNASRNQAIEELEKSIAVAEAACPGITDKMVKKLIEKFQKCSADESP

[2] = WST-1 cytotoxicity assay on Jurkat cells (T-cell line); format: cell-based, human; settings: human, Jurkat cells (T-cell line), mean of 4 independent measures, read-out: Cytotoxicity, WST-1 Jurkat IC 50 (µM) Mean
[3] = WST-1 cytotoxicity assay on RPMI1788 cells (B-cell line); format: cell-based, human; settings: human, RPMI1788 cells (B-cell line), mean of 4 independent measures, read-out: Cytotoxicity, WST-1 RPMI 1788 IC 50 (µM) Mean
Description: (§1) Compounds were prepared as 10 mM stock solutions in dimethylsulfoxide (DMSO)and were tested at 50-10-1-0.1-0.01 and 0.001 μM in the 4 assays.
The human B cell line RPMI1788 (American Type Culture Collection, USA) and the human T cell line Jurkat (European Collection of Cell Cultures, ECACC, England) were maintained in RPMI1640 culture medium (BioWhittaker®, Lonza, Verviers, Belgium) containing 10% foetal calf serum (FCS, HyClone® Thermo Scientific, United Kingdom) and 5 μg/mL gentamicin sulphate (BioWhittaker®, Lonza, Verviers, Belgium) at 37°C and 5% CO2.
WST-1 assays on RPMI-1788 cells and Jurkat cells were performed as follows: 20 μL of test compound dilution were added to each well containing exponential growing cells and the plates were incubated for 48 h at 37°C, 5% CO2. Untreated cells and positive control (1% triton X-100, for the last 15 min) served as reference for maximum and minimum viability. At the end of incubation 100 μL of supernatant were removed and replaced by 10 μL of WST-1 solution (Cell Proliferation Reagent WST-1, Roche Applied Science).

CK1d = biological target: T3, CK1d (Homo sapiens, UniProt P48730); assay: Kinase activity test (ReactionBiology), % enzyme activity relative to DMSO; format: biochemical; settings: CK1d
T3 construct: purchased ReactionBiology
T3 sequence (P48730 whole entry): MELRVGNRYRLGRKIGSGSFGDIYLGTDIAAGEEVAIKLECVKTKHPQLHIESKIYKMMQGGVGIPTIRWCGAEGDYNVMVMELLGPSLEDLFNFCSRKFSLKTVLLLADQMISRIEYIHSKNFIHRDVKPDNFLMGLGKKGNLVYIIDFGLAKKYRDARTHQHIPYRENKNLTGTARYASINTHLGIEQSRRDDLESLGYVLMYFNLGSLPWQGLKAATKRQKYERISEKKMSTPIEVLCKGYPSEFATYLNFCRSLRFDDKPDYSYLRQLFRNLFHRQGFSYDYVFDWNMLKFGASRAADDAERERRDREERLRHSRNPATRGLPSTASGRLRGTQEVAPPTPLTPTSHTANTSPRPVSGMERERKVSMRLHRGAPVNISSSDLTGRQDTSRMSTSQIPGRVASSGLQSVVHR

human CD19+ B cells = assay: B-cell assay: IgG production of ODN2006-stimulated primary B cells (AlphaLISA); format: cell-based; settings: Homo sapiens, B-cell, 168 h; IgG production, ODN2006 0.1 μM, 7 days; mean of 4 independent experiments; read-out: B-cell IC50
Description: as §1
Blood samples of healthy volunteers were collected at the Red Cross of Mechelen, Belgium.
Highly purified naive peripheral human B cells were separated from fresh human PBMCs on magnetic columns by positive selection using CD19 magnetic beads according to the manufacturer’s instructions (MACS Miltenyi Biotech, Leiden, The Netherlands). […] Freshly isolated human CD19+ B cells were then plated at 25 000 cells per well in a 384-well plate (Perkin Elmer, Zaventem, Belgium) in 55 μL in DMEM medium containing 10% FCS and 5 μg/mL gentamicin sulphate. After 7 days of stimulation with 0.1 μM ODN2006 (InvivoGen, Toulouse, France), supernatant was taken for analysis of IgG using the AlphaLISA human IgG kit according to the manufacturer’s instructions (Perkin Elmer, Zaventem, Belgium).

MAP2K2 = biological target: T4, MAP2K2 (Homo sapiens, UniProt P36507); assay: Kinase activity test (ReactionBiology), % enzyme activity relative to DMSO; format: biochemical; settings: MEK2
T4 construct: purchased ReactionBiology
T4 sequence (P36507 whole entry): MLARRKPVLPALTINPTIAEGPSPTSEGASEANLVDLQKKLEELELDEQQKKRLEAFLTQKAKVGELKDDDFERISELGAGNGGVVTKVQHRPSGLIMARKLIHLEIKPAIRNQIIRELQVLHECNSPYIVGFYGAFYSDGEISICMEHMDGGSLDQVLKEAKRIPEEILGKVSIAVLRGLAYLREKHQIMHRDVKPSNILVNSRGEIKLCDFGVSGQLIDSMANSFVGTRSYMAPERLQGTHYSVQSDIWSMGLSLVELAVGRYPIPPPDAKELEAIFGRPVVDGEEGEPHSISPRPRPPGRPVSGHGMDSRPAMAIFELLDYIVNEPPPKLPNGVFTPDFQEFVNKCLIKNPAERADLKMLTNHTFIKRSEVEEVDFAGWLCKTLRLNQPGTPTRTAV

NEK2 = biological target: T5, NEK2 (Homo sapiens, UniProt P51955); assay: as above; format: biochemical; settings: NEK2;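 note: FDA-approved drugs chosen by structure-based repositioning, each screened at 10 or 1 µM for kinase activity, expressed as percent of DMSO controls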
T5 construct: purchased ReactionBiology
T5 sequence (P51955 1-445): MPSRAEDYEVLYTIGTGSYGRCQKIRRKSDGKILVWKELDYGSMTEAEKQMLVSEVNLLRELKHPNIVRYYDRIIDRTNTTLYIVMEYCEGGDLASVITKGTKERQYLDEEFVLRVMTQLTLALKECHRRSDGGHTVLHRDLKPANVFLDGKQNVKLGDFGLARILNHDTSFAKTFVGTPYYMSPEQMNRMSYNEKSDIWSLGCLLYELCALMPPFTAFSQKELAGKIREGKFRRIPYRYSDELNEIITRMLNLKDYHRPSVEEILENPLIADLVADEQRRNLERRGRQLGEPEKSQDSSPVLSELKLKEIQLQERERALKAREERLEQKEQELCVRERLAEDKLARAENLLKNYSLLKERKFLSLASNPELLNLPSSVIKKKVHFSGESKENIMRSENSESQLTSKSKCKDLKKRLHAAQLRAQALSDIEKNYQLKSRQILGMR

[4] = Average, read-out: % Enzyme Activity (relative to DMSO controls), Average
[5] = replicate Data 1, read-out: % Enzyme Activity (relative to DMSO controls), Data 1
[6] = replicate Data 2, read-out: % Enzyme Activity (relative to DMSO controls), Data 2

T1 sequence (P53355 whole entry): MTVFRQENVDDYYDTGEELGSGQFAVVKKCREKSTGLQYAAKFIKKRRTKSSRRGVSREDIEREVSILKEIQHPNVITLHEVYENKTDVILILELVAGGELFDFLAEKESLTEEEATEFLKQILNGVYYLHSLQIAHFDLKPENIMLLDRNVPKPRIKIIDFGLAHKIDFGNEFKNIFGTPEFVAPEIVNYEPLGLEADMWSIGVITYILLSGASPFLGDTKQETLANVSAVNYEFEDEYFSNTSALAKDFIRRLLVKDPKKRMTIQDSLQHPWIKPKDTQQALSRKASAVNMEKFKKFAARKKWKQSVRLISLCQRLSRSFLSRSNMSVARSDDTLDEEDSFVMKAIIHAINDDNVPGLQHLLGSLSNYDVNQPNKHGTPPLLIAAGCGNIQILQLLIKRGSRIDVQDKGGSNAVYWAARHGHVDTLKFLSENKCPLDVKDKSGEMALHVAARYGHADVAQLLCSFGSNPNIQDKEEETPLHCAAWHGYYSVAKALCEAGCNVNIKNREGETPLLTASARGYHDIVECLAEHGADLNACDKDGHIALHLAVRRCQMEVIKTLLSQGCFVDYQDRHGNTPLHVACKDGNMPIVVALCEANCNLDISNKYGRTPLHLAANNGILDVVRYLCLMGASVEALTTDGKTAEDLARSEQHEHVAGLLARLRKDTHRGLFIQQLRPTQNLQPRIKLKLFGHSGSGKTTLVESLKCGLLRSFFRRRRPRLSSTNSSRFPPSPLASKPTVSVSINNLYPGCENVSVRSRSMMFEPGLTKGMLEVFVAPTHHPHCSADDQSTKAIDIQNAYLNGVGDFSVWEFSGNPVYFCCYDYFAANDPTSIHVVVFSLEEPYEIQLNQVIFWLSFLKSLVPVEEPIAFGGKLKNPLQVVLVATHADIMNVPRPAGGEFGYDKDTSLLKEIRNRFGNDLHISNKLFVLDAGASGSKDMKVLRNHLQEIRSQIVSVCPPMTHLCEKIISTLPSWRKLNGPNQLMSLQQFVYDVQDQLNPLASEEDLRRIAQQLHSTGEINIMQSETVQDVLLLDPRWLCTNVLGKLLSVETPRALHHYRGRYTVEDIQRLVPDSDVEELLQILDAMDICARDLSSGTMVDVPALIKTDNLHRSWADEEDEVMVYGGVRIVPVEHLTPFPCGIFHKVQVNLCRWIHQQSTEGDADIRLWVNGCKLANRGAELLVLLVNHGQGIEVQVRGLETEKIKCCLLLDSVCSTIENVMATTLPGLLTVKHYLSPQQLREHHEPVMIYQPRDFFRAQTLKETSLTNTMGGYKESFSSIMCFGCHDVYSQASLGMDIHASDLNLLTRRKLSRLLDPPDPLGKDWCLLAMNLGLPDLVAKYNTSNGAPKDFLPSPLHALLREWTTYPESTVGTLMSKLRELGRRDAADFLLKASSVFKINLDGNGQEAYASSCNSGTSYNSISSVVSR

SMILES: Cc1nc(Nc2ncc(C(=O)Nc3c(C)cccc3Cl)s2)cc(N2CCN(CCO)CC2)n1 [Dasatinib, reference compound]
- remaining activity at 1 µM (DAPK1; [4]): 92%
- remaining activity at 1 µM (DAPK1; [5]): 91.8%
- remaining activity at 1 µM (DAPK1; [6]): 92.1%
- remaining activity at 10 µM (DAPK1; [4]): 51.4%
- remaining activity at 10 µM (DAPK1; [5]): 49.9%
- remaining activity at 10 µM (DAPK1; [6]): 52.8%
- IC50 [1]: 0.0032 µM
- remaining activity at 1 µM (MST-4; [4]): 40.2%
- remaining activity at 1 µM (MST-4; [5]): 46.5%
- remaining activity at 1 µM (MST-4; [6]): 33.9%
- remaining activity at 10 µM (MST-4; [4]): 12%
- remaining activity at 10 µM (MST-4; [5]): 9.39%
- remaining activity at 10 µM (MST-4; [6]): 14.6%
- IC50 at 48 h [2]: 7.3 µM
- IC50 at 48 h [3]: 0.0324 µM
- remaining activity at 1 µM (CK1d; [4]): 98.7%
- remaining activity at 1 µM (CK1d; [5]): 95.4%
- remaining activity at 1 µM (CK1d; [6]): 102%
- remaining activity at 10 µM (CK1d; [4]): 92.7%
- remaining activity at 10 µM (CK1d; [5]): 93.2%
- remaining activity at 10 µM (CK1d; [6]): 92.2%
- IC50 (human CD19+ B cells): 46 nM
- remaining activity at 1 µM (MAP2K2; [4]): 45.1%
- remaining activity at 1 µM (MAP2K2; [5]): 44.8%
- remaining activity at 1 µM (MAP2K2; [6]): 45.5%
- remaining activity at 10 µM (MAP2K2; [4]): 7.91%
- remaining activity at 10 µM (MAP2K2; [5]): 8.25%
- remaining activity at 10 µM (MAP2K2; [6]): 7.56%
- remaining activity at 1 µM (NEK2; [4]): 81.6%
- remaining activity at 1 µM (NEK2; [5]): 81.9%
- remaining activity at 1 µM (NEK2; [6]): 81.2%
- remaining activity at 10 µM (NEK2; [4]): 19%
- remaining activity at 10 µM (NEK2; [5]): 20%
- remaining activity at 10 µM (NEK2; [6]): 18%
